Reference: patent US10172863B2, “Purine derivatives useful as HSP90 inhibitors” (Sloan-Kettering Institute for Cancer Research, priority 2009, dated 2019)

Each compound was assayed on SKBr3 cell Hsp90 (assay: EC50 for Hsp90 binding in SKBr3 cell lysate). Settings: read-out: EC50, binding to SKBr3 cell Hsp90.

EC50 | Compound
1.13 µM | CC(C)NCCCn1c(Sc2cc3c(cc2CC#N)OCO3)nc2c(N)ncnc21 [Compound 4E-3, 2-(6-((6-amino-9-(3-(isopropylamino)propyl)-9H-purin-8-yl)thio)benzo[d][1,3]dioxol-5-yl)acetonitrile]
1.03 µM | COc1ccc(-c2cc3c(cc2Sc2nc4c(N)ncnc4n2CCCNC(C)C)OCO3)cc1 [Compound 4A-6, 9-(3-(isopropylamino)propyl)-8-(6-(4-methoxyphenyl)benzo[d][1,3]dioxol-5-ylthio)-9H-purin-6-amine]
0.0069 µM | CC(C)NCCCn1c(Sc2cc3c(cc2-c2ccco2)OCCO3)nc2c(N)ncnc21 [Compound 5B-1, 8-((7-(furan-2-yl)-2,3-dihydrobenzo[b][1,4]dioxin-6-yl)thio)-9-(3-(isopropylamino)propyl)-9H-purin-6-amine]
0.037 µM | Cc1ccc(-c2cc3c(cc2Sc2nc4c(N)ncnc4n2CCCNC(C)C)OCO3)o1 [Compound 4C-8, 9-(3-(isopropylamino)propyl)-8-(6-(5-methylfuran-2-yl)benzo[d][1,3]dioxol-5-ylthio)-9H-purin-6-amine]
> 100 µM | CC(C)NCCCn1c(Sc2cc3c(cc2-c2cc(C(F)(F)F)cc(C(F)(F)F)c2)OCO3)nc2c(N)ncnc21 [Compound 4A-3, 8-(6-(3,5-bis(trifluoromethyl)phenyl)benzo[d][1,3]dioxol-5-ylthio)-9-(3-(isopropylamino)propyl)-9H-purin-6-amine]
0.0079 µM | CC(C)NCCCn1c(Sc2cc3c(cc2-c2ncco2)OCO3)nc2c(N)ncnc21 [Compound 4C-38, 9-(3-(isopropylamino)propyl)-8-(6-(oxazol-2-yl)benzo[d][1,3]dioxol-5-ylthio)-9H-purin-6-amine]
2.52 µM | CC(C)NCCCn1c(Sc2cc3c(cc2-c2ccc(N(C)C)cc2)OCO3)nc2c(N)ncnc21 [Compound 4A-5, 8-(6-(4-(dimethylamino)phenyl)benzo[d][1,3]dioxol-5-ylthio)-9-(3-(isopropylamino)propyl)-9H-purin-6-amine]
0.0065 µM | CC(C)(C)CNCCn1c(Sc2cc3c(cc2-c2ccco2)OCO3)nc2c(N)ncnc21 [Compound 4C-5, 8-(6-(furan-2-yl)benzo[d][1,3]dioxol-5-ylthio)-9-(2-(neopentylamino)ethyl)-9H-purin-6-amine]
